# Assay results as given in US11753407B2, “Compounds for treating spinal muscular atrophy” (PTC Therapeutics, Inc., priority 2012, dated 2023).
# Assays:
# [1] = system: SMN2 minigene mRNA (SMN2-A minigene) in HEK293H cells; experiment: SMN2 minigene mRNA splicing RT-qPCR assay in cultured cells; type: cell-based, human; conditions: Homo sapiens, HEK293-H; concentration increasing full length SMN2 mRNA 1.5-fold relative to vehicle-treated cells; HEK293H cells with SMN2-A minigene, 24 hours, 7-point concentration data; read-out: EC1.5x for production of full length SMN2 mRNA
# How it was run: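 Stable SMN2-A minigene HEK293H; cpd 7-pt 3.16-fold series, 200× in DMSO, 24 h, 37 °C, n=2. Lysates → multiplex RT-qPCR (minigene FL + GAPDH), efficiency-corrected ΔΔCt vs vehicle. EC1.5× = 1.5-fold FL mRNA gain.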
# [2] = system: Smn protein in SMA patient fibroblast cells (GM03813); experiment: Smn protein assay in cultured cells (SMN HTRF); type: cell-based, human; conditions: SMA patient fibroblast cells, 48 hours; for maximum fold (Fold) increase of Smn protein: 7-point concentration data, fold relative to vehicle control; for EC1.5x for Smn protein expression: 7-point concentration curve, SMN HTRF, concentration producing 1.5 times Smn protein vs DMSO vehicle control
# How it was run: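 Fibroblasts, SMA patient; 5,000 cells/well; 7-pt curve, 3.16-fold serial dilution; 48 h, 37 °C, 5% CO2; RIPA lysis 1 h RT; anti-SMN d2 + kryptate overnight RT; HTRF 665/620 nm; fold vs DMSO; EC1.5×, max fold.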
melting point [°C],SMILES,EC (1.5-fold increase) [1] [µM],maximum fold (Fold) increase of Smn protein [2],EC1.5x for Smn protein expression [2]
148 to 151,"COc1ccc(-c2cc(=O)n3cc(N4CC[C@H](N)C4)ccc3n2)cc1OC [Compound 159, 7-[(3S)-3-aminopyrrolidin-1-yl]-2-(3,4-dimethoxyphenyl)-4H-pyrido[1,2-a]pyrimidin-4-one]",1 to 3,*** (a fold increase between >1.35 and ≤1.5 is indicated by three stars (***)),
225 to 230,"Cc1csc(-c2cc(=O)n3cc(N4CCN[C@@H](C)C4)ccc3n2)n1 [Compound 162, 7-[(3S)-3-methylpiperazin-1-yl]-2-(4-methyl-1,3-thiazol-2-yl)-4H-pyrido[1,2-a]pyrimidin-4-one]",0.3 to 1,**** (a fold increase between >1.5 and ≤1.65 is indicated by four stars (****)),** (an EC1.5× between >1 μM and ≤3 μM is indicated by two stars (**))
169 to 172,"COc1ccc(-c2cc(=O)n3cc(N4CC[C@H](NC(C)C)C4)ccc3n2)cc1OC [Compound 165, 2-(3,4-dimethoxyphenyl)-7-[(3S)-3-(propan-2-ylamino)pyrrolidin-1-yl]-4H-pyrido[1,2-a]pyrimidin-4-one]",1 to 3,** (a fold increase between >1.2 and ≤1.35 is indicated by two stars (**)),
176 to 178,"COc1ccc(-c2cc(=O)n3cc(N4CCCN(C)CC4)ccc3n2)cc1F [Compound 166, 2-(3-fluoro-4-methoxyphenyl)-7-(4-methyl-1,4-diazepan-1-yl)-4H-pyrido[1,2-a]pyrimidin-4-one]",0.3 to 1,** (a fold increase between >1.2 and ≤1.35 is indicated by two stars (**)),
183 to 187,"COc1ccc(-c2cc(=O)n3cc(N4CCNCC4)ccc3n2)cc1[N+](=O)[O-] [Compound 167, 2-(4-methoxy-3-nitrophenyl)-7-(piperazin-1-yl)-4H-pyrido[1,2-a]pyrimidin-4-one]",< 0.1,*** (a fold increase between >1.35 and ≤1.5 is indicated by three stars (***)),** (an EC1.5× between >1 μM and ≤3 μM is indicated by two stars (**))
174 to 176,"CSc1ccc(-c2cc(=O)n3cc(N4CCNCC4)ccc3n2)cc1F [Compound 168, 2-[3-fluoro-4-(methylsulfanyl)phenyl]-7-(piperazin-1-yl)-4H-pyrido[1,2-a]pyrimidin-4-one]",0.3 to 1,* (A maximum fold increase of ≤1.2 is indicated by one star (*)),
175 to 180,"COc1ncc(-c2cc(=O)n3cc(N4CCN[C@@H](C)C4)ccc3n2)cc1F [Compound 173, 2-(5-fluoro-6-methoxypyridin-3-yl)-7-[(3S)-3-methylpiperazin-1-yl]-4H-pyrido[1,2-a]pyrimidin-4-one]",0.3 to 1,** (a fold increase between >1.2 and ≤1.35 is indicated by two stars (**)),
160 to 165,"COc1ncc(-c2cc(=O)n3cc(N4C[C@@H](C)N[C@@H](C)C4)ccc3n2)cc1F [Compound 174, 7-[(3R,5S)-3,5-dimethylpiperazin-1-yl]-2-(5-fluoro-6-methoxypyridin-3-yl)-4H-pyrido[1,2-a]pyrimidin-4-one]",1 to 3,** (a fold increase between >1.2 and ≤1.35 is indicated by two stars (**)),

# Further lines, the compound ahead of its results:
SMILES,melting point [°C],EC (1.5-fold increase) [1] [µM],maximum fold (Fold) increase of Smn protein [2],EC1.5x for Smn protein expression [2]
"Cc1nc2cc(-c3cc(=O)n4cc(N5CCCNCC5)ccc4n3)ccc2s1 [Compound 161, 7-(1,4-diazepan-1-yl)-2-(2-methyl-1,3-benzothiazol-5-yl)-4H-pyrido[1,2-a]pyrimidin-4-one]",208 to 212,0.3 to 1,*** (a fold increase between >1.35 and ≤1.5 is indicated by three stars (***)),** (an EC1.5× between >1 μM and ≤3 μM is indicated by two stars (**))
"Cc1cn2cc(-c3cc(=O)n4cc(N5CCCN(C)CC5)ccc4n3)ccc2n1 [Compound 169, 7-(4-methyl-1,4-diazepan-1-yl)-2-(2-methylimidazo[1,2-a]pyridin-6-yl)-4H-pyrido[1,2-a]pyrimidin-4-one]",208 to 213,< 0.1,**** (a fold increase between >1.5 and ≤1.65 is indicated by four stars (****)),**** (an EC1.5x≤0.3 μM is indicated by four stars (****))
"Cc1nc2ccc(-c3cc(=O)n4cc(N5C[C@@H](C)N[C@@H](C)C5)ccc4n3)cc2o1 [Compound 172, 7-[(3R,5S)-3,5-dimethylpiperazin-1-yl]-2-(2-methyl-1,3-benzoxazol-6-yl)-4H-pyrido[1,2-a]pyrimidin-4-one]",233 to 235,< 0.1,***** (a fold increase >1.65 is indicated by five stars (*****)),**** (an EC1.5x≤0.3 μM is indicated by four stars (****))
"Cc1nc2cc(-c3cc(=O)n4cc(N5C[C@@H](C)N[C@@H](C)C5)ccc4n3)ccc2s1 [Compound 175, 7-[(3R,5S)-3,5-dimethylpiperazin-1-yl]-2-(2-methyl-1,3-benzothiazol-5-yl)-4H-pyrido[1,2-a]pyrimidin-4-one]",208 to 212,< 0.1,**** (a fold increase between >1.5 and ≤1.65 is indicated by four stars (****)),*** (an EC1.5× between >0.3 μM and ≤1 μM is indicated by three stars (***))
"Cc1nc2cc(-c3cc(=O)n4cc(N5CCN(C)CC5)ccc4n3)ccc2s1 [Compound 176, 2-(2-methyl-1,3-benzothiazol-5-yl)-7-(4-methylpiperazin-1-yl)-4H-pyrido[1,2-a]pyrimidin-4-one]",214 to 218,0.3 to 1,*** (a fold increase between >1.35 and ≤1.5 is indicated by three stars (***)),* (An EC1.5× for Smn protein expression between >3 μM and ≤10 μM is indicated by one star (*))
"Cc1nc2cc(-c3cc(=O)n4cc(N5CCCN(C)CC5)ccc4n3)ccc2s1 [Compound 177, 2-(2-methyl-1,3-benzothiazol-5-yl)-7-(4-methyl-1,4-diazepan-1-yl)-4H-pyrido[1,2-a]pyrimidin-4-one]",165 to 170,0.1 to 0.3,*** (a fold increase between >1.35 and ≤1.5 is indicated by three stars (***)),
"Cc1nc2cc(-c3cc(=O)n4cc(N5CCN6CCC[C@H]6C5)ccc4n3)ccc2s1 [Compound 178, 7-[(8aS)-hexahydropyrrolo[1,2-a]pyrazin-2(1H)-yl]-2-(2-methyl-1,3-benzothiazol-5-yl)-4H-pyrido[1,2-a]pyrimidin-4-one]",254 to 256,0.3 to 1,** (a fold increase between >1.2 and ≤1.35 is indicated by two stars (**)),
